US8575158B2, “1-phenyl-substituted heterocyclyl derivatives and their use as prostaglandin D2 receptor modulators” (Actelion Pharmaceuticals Ltd., priority 2010, dated 2013)

target: T1, hCRTH2 receptor (Homo sapiens, UniProt Q9Y5Y4); experiment: Radioligand displacement assay (3H-PGD2) on hCRTH2 receptor membranes; format: binding; settings: antagonistic activity, 3H-PGD2 radioligand displacement, HEK293-hCRTH2 membranes
T1 construct: expressed in transfected cells; host or cells: HEK293
T1 sequence (Q9Y5Y4 1-395): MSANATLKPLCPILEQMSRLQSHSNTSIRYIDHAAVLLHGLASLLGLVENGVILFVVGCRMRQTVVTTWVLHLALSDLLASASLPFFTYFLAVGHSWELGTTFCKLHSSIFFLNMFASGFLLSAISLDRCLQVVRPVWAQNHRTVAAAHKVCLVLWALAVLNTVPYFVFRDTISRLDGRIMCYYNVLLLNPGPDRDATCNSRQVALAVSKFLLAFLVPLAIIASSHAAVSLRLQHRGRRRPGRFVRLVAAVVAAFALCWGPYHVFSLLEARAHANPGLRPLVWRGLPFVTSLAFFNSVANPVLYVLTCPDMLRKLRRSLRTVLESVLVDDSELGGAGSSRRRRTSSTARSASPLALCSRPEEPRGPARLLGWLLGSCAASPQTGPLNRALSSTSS
Experimental: First, recombinant HEK293-hCRTH2 cells were detached from culture plates into 5 ml buffer A/plate (Buffer A: 5 mM Tris, 1 mM MgCl2-6H2O pH=7.4) using a rubber policeman. Cells were then transferred into centrifugation tubes and centrifuged for 5 min at 400 g. The cell pellet was resuspended in the same buffer and tubes were frozen at −80° C. Cells were thawed and membrane fragments were generated by homogenization using a polytron homogenizer (30 seconds). The membrane fragments were then centrifuged at 3000 g for 20 minutes and resuspended in buffer C (Buffer C: 75 mM Tris, 25 mM MgCl2, 250 mM Saccharose pH 7.4). Aliquots of membrane fragments were stored at −20° C.
Binding assay was performed in a final assay volume of 250 μl. First, 25 μl of test compound, previously diluted in Binding-Buffer (Binding-Buffer: 50 mM Tris-Base, 100 mM NaCl, 1 mM EDTA, 0.1% BSA (protease free), 0.01% NaN3, 10 mM MnCl2, pH 7.0) was placed into each well. After addition of 75 μl Binding-Buffer, 50 μl of the radioligand ^3H-PGD2 (at 2.5 nM (220.000 dpm/well) from ANAWA ART0662) was added to each well. Binding assay was started by addition of 100 μl CRTH2 membrane fragments, reaching a final concentration of 20 μg/well. For non-specific binding, PGD2 was added to the reaction mixture to […] final concentration.
This assay mix was incubated for 90 minutes at room temperature and then filtered through a GF/C filter 96-well plate which was pre-soaked for 3 hours in 0.5% polyethyleneimine (PEI). The filter-wells were washed three times with ice cold Binding-Buffer. Then, 40 μl of Microscint-40 (Packard) was added to each well and the retained radioactivity quantified in a Topcount (Packard).

Row | IC50 [nM] | Structure (SMILES)
1 | 5.05 | Cc1ncc(COC(=O)N2CCc3c(ccc(F)c3F)[C@H]2c2cc(Cl)ccc2OCC(=O)O)s1 [Example 303, (S)-1-(2-Carboxymethoxy-5-chloro-phenyl)-5,6-difluoro-3,4-dihydro-1H-isoquinoline-2-carboxylic acid 2-methyl-thiazol-5-ylmethyl ester]
2 | 4.65 | Cn1nccc1COC(=O)N1CCc2c(ccc(F)c2F)[C@H]1c1cc(Cl)ccc1OCC(=O)O [Example 312, (S)-1-(2-Carboxymethoxy-5-chloro-phenyl)-5,6-difluoro-3,4-dihydro-1H-isoquinoline-2-carboxylic acid 2-methyl-2H-pyrazol-3-ylmethyl ester]
3 | 25.4 | O=C(O)COc1ccc(F)cc1C1c2ccccc2CN1C(=O)OCc1ccccc1 (racemic) [Example 499]
4 | 31.6 | O=C(O)COc1ccc(Cl)cc1C1c2ccccc2CCN1C(=O)CCn1ccc2ncccc21 (racemic) [Example 381]
5 | 8.67 | Cc1cnc(COC(=O)N2CCc3cc(F)ccc3[C@H]2c2cc(Cl)ccc2OCC(=O)O)s1 [Example 326, (S)-1-(2-Carboxymethoxy-5-chloro-phenyl)-6-fluoro-3,4-dihydro-1H-isoquinoline-2-carboxylic acid 5-methyl-thiazol-2-ylmethyl ester]
6 | 9.8 | CCn1nc(C)cc1CCOC(=O)N1CCc2c(ccc(F)c2F)[C@H]1c1cc(Cl)ccc1OCC(=O)O [Example 314, (S)-1-(2-Carboxymethoxy-5-chloro-phenyl)-5,6-difluoro-3,4-dihydro-1H-isoquinoline-2-carboxylic acid 2-(2-ethyl-5-methyl-2H-pyrazol-3-yl)-ethyl ester]
7 | 379 | CN(CC(=O)N1CCc2ccccc2C1c1cc(Cl)ccc1OCC(=O)O)c1ccccc1 (racemic) [Example 439]
8 | 91.1 | O=C(O)COc1ccc(Cl)cc1C1c2ccc(F)cc2CCN1C(=O)CCOc1ccc(F)cc1 (racemic) [Example 438]
9 | 12.3 | COc1ccc2ccn(CCC(=O)N3CCc4ccccc4C3c3cc(Cl)ccc3OCC(=O)O)c2n1 (racemic) [Example 374]
10 | 53.1 | N#Cc1ccc2c(ccn2CCC(=O)N2CCc3ccccc3C2c2cc(Cl)ccc2OCC(=O)O)c1 (racemic) [Example 371]
11 | 1.87 | O=C(O)COc1ccc(Cl)cc1[C@@H]1c2ccc(F)cc2CCN1C(=O)OCc1ccccc1F [Example 352, (S)-1-(2-Carboxymethoxy-5-chloro-phenyl)-6-fluoro-3,4-dihydro-1H-isoquinoline-2-carboxylic acid 2-fluoro-benzyl ester]
12 | 37.8 | O=C(O)COc1ccc(Cl)cc1[C@@H]1c2ccc(F)cc2CCN1C(=O)OCc1nc2ccccc2s1 [Example 344, (S)-1-(2-Carboxymethoxy-5-chloro-phenyl)-6-fluoro-3,4-dihydro-1H-isoquinoline-2-carboxylic acid benzothiazol-2-ylmethyl ester]
13 | 2.84 | O=C(O)COc1ccc(Cl)cc1[C@@H]1c2cccc(F)c2CCN1C(=O)OCc1cccc(F)c1 [Example 358, (S)-1-(2-Carboxymethoxy-5-chloro-phenyl)-5-fluoro-3,4-dihydro-1H-isoquinoline-2-carboxylic acid 3-fluoro-benzyl ester]
14 | 4.77 | O=C(O)COc1ccc(Cl)cc1[C@@H]1c2ccc(F)c(F)c2CCN1C(=O)OCc1ccncn1 [Example 309, (S)-1-(2-Carboxymethoxy-5-chloro-phenyl)-5,6-difluoro-3,4-dihydro-1H-isoquinoline-2-carboxylic acid pyrimidin-4-ylmethyl ester]
15 | 396 | Cc1nc(C)c(C2CC2C(=O)N2CCc3ccccc3C2c2cc(Cl)ccc2OCC(=O)O)s1 (racemic) [Example 467, (±)-(4-Chloro-2-{2-[2-(2,4-dimethyl-thiazol-5-yl)-cyclopropanecarbonyl]-1,2,3,4-tetrahydro-isoquinolin-1-yl}-phenoxy)-acetic acid]
16 | 6.83 | O=C(O)COc1ccc(Cl)cc1[C@@H]1c2ccc(F)c(F)c2CCN1C(=O)OCc1nccs1 [Example 299, (S)-1-(2-Carboxymethoxy-5-chloro-phenyl)-5,6-difluoro-3,4-dihydro-1H-isoquinoline-2-carboxylic acid thiazol-2-ylmethyl ester]
17 | 199 | O=C(O)COc1ccc(Cl)cc1C1c2ccccc2CCN1C(=O)COc1cccnc1F (racemic) [Example 482]
18 | 12.5 | O=C(O)COc1ccc(Cl)cc1C1c2ccccc2CN1C(=O)CCn1ncc2ccccc21 (racemic) [Example 516]

same assay, conditions: antagonistic activity; 3H-PGD2 displacement on HEK293-hCRTH2 membrane fragments

Row | IC50 [nM] | Structure (SMILES)
19 | 0.77 | Cc1ncc(COC(=O)N2CCc3ccccc3[C@H]2c2cc(Cl)ccc2OCC(=O)O)s1 [Example 277, (S)-1-(2-Carboxymethoxy-5-chloro-phenyl)-3,4-dihydro-1H-isoquinoline-2-carboxylic acid 2-methyl-thiazol-5-ylmethyl ester]
20 | 1.41 | O=C(O)COc1ccc(Cl)cc1[C@@H]1c2cccc(F)c2CCN1C(=O)OCc1ccccc1 [Example 31, (S)-1-(2-Carboxymethoxy-5-chloro-phenyl)-5-fluoro-3,4-dihydro-1H-isoquinoline-2-carboxylic acid benzyl ester]
21 | 1.39 | O=C(O)COc1ccc(Cl)cc1[C@@H]1c2ccccc2CCN1C(=O)[C@@H]1C[C@H]1c1ccccc1 [Example 232, {4-Chloro-2-[(S)-2-((1R,2R)-2-phenyl-cyclopropanecarbonyl)-1,2,3,4-tetrahydro-isoquinolin-1-yl]-phenoxy}-acetic acid]
22 | 369 | O=C(O)COc1ccc(F)cc1C1c2ccccc2CCN1C(=O)Cc1noc2ccccc12 (racemic) [Example 45, (±)-{2-[2-(2-Benzo[d]isoxazol-3-yl-acetyl)-1,2,3,4-tetrahydro-isoquinolin-1-yl]-4-fluoro-phenoxy}-acetic acid]
23 | 6.48 | O=C(O)COc1ccc(Cl)cc1C1c2ccccc2CCN1C(=O)OCc1c(Cl)cccc1Cl (racemic) [Example 243]
24 | 175 | O=C(O)COc1ccc(F)cc1C1c2ccccc2CCN1C(=O)COc1ccccc1 (racemic) [Example 125, (±)-{4-Fluoro-2-[2-(2-phenoxy-acetyl)-1,2,3,4-tetrahydro-isoquinolin-1-yl]-phenoxy}-acetic acid]
25 | 44 | O=C(O)COc1ccc(Cl)cc1C1c2ccccc2CCN1C(=O)Cn1ccc2ccccc21 (racemic) [Example 72, (±)-{4-Chloro-2-[2-(2-indol-1-yl-acetyl)-1,2,3,4-tetrahydro-isoquinolin-1-yl]-phenoxy}-acetic acid]
26 | 182 | O=C(O)COc1ccc(F)cc1C1c2ccccc2CCN1C(=O)Cc1ccc2c(c1)OCCO2 (racemic) [Example 50]
27 | 12.8 | O=C(O)COc1ccc(Cl)cc1C1c2ccccc2CN1C(=O)OCc1ccccc1 (racemic) [Example 230]
28 | 51.1 | O=C(O)COc1ccc(Cl)cc1C1c2ccccc2CCN1C(=O)Cn1cnc2ccccc21 (racemic) [Example 78, (±)-{2-[2-(2-Benzoimidazol-1-yl-acetyl)-1,2,3,4-tetrahydro-isoquinolin-1-yl]-4-chloro-phenoxy}-acetic acid]
29 | 62.7 | Cc1ccc(OCC(=O)O)c(C2c3ccccc3CCN2C(=O)OCc2ccccc2)c1 (racemic) [Example 3, (±)-1-(2-Carboxymethoxy-5-methyl-phenyl)-3,4-dihydro-1H-isoquinoline-2-carboxylic acid benzyl ester]
30 | 12.7 | O=C(O)COc1ccc(-n2nccn2)cc1C1c2ccccc2CCN1C(=O)OCc1ccccc1 (racemic) [Example 224, (±)-1-(2-Carboxymethoxy-5-[1,2, 3]triazol-2-yl-phenyl)-3,4-dihydro-1H-isoquinoline-2-carboxylic acid benzyl ester]
31 | 4.34 | N#Cc1ccc(OCC(=O)O)c(C2c3ccc(F)c(F)c3CCN2C(=O)OCc2ccccc2)c1 (racemic) [Example 16, (±)-1-(2-Carboxymethoxy-5-cyano-phenyl)-5,6-difluoro-3,4-dihydro-1H-isoquinoline-2-carboxylic acid benzyl ester]
32 | 423 | CN(CC(=O)N1CCc2ccccc2C1c1cc(F)ccc1OCC(=O)O)S(=O)(=O)c1ccccc1 (racemic) [Example 210]

Row | Structure (SMILES) | IC50 [nM]
33 | O=C(O)COc1ccc(F)cc1C1c2ccccc2CCN1C(=O)Cc1ccccc1 (racemic) [Example 124, (±)-[4-Fluoro-2-(2-phenylacetyl-1,2,3,4-tetrahydro-isoquinolin-1-yl)-phenoxy]-acetic acid] | 417
